The target in one assay is KRAS G12C protein (Homo sapiens, UniProt P01116, G12C). Nature of the assay: Nucleotide exchange assay (Method III, KRAS G12C/Raf-RBD TR-FRET). The assay is classed as biochemical. As to conditions: SOS1-mediated exchange of GDP for GTP, 18 hr compound incubation. As for the experimental part:
Method III. Inhibition of SOS1-mediated exchange of GDP for GTP on the KRAS G12C protein was measured in a biochemical assay that monitors association of KRAS G12C protein with the Ras-binding domain of Raf (Raf-RBD), where the association is coupled to exchange of GDP to GTP on the KRAS G12C protein. The assay was performed at WuXi AppTec (Shanghai, China). Compounds were serially diluted in 3-fold dilutions to 11 concentrations and spotted into the wells of an assay plate in a total volume of 150 nL DMSO per well. A 2× enzyme mix was prepared by diluting GDP-bound, His-tagged KRAS G12C to 25 nM in assay buffer. 10 μL/well of 2× enzyme mix was added to all wells, and the plate was sealed and incubated overnight (18 hr) at 23° C. 4×SOS1/GDP and 4×SOS1/GTP were prepared in assay buffer. 5 μL/well of 4×SOS1/GDP mix was added to negative control wells, 5 μL/well of 4×SOS1/GTP mix was added to the remaining wells, and the plate was further incubated at 23° C. for 1 hr. Finally, FLAG-tagged Raf-RBD is added to the reaction mixture along with a pair of FRET donor- and acceptor-conjugated antibodies specific for the FLAG-tagged Raf-RBD and His-tagged KRAS G12C proteins. A 4×Raf-RBD/Tb-anti-FLAG/D2-anti-His mix was prepared in assay buffer, and 5 μL/well of the mix was added to all wells, followed by incubation at room temperature for 2 hr. The TR-FRET signals, which increase with association of KRAS G12C and Raf-RBD, were measured on a Perkin Elmer Envision 2104 plate reader, and data were analyzed by non-linear regression to obtain IC50 values for inhibition by compounds. Table 2 includes results of the assay of Method III. ‘+++’ indicates IC50 values≤300 nM, ‘++’ indicates IC50 values between 300 nM-3 μM, and ‘+’ indicates IC50 values≥3 μM.
In general terms: Time-resolved FRET reads energy transfer from a long-lived donor to a nearby acceptor.

In another assay the test system is NCI-H358 cells. The assay is described as follows: 3D cell proliferation assay (Cell Titer-Glo 3D, 7 days). The assay is classed as cell-based. The following applies: NCI-H358 3D, ultra-low attachment plate. As for the experimental part:
NCI-H358 cells (ATCC® CRL-5807™) were plated in a 384-well Black/Clear Round Bottom Ultra-Low Attachment Microplate (Corning) in medium (RPMI-1640+10% FBS) at a density of 1000 cells in 50 μL per well, then incubated overnight at 37° C. and 5% CO2. Cells were treated with test compounds at 9 concentrations within a specified concentration range (e.g., 0.5 nM-10 μM) for generation of dose response curves. Test compounds were prepared by 1:3 serial dilution in DMSO from a specified starting concentration (e.g., 20 μM, 2 μM or 0.2 μM) and then added to wells of the assay plate in a total volume of 150 nL DMSO. The cells were further incubated at 37° C. and 5% CO2 for 7 days. Cell viability was assessed by adding 40 μL of Cell Titer-Glo® 3D reagent (Cat. No.: G9683, Promega) to each well and reading luminescence after mixing and incubation of the samples. The IC50 value of each test compound was calculated with XLFit curve fitting software.
(In general: Cellular ATP, detected with luciferase, serves as a proxy for viable cell number.)

The test system of a further assay is MIA PaCa-2. Nature of the assay: Cell proliferation assay panel (Cell Titer-Glo, 72 hr). The assay is classed as cell-based. As for the experimental part:
Potency of compounds was determined in cell proliferation assays in a panel of cancer cell lines. Cells were seeded in 384-well plates (Corning, Cat. #3765) at specified densities in 40 μL of culture medium and incubated overnight at 37° C. in a 5% CO2 incubator (culture conditions). With a robotic dispenser, serially diluted test compounds were added in a volume of 20 nL DMSO to wells in the culture plate to achieve the final desired concentrations of test compounds, and the cells were further incubated in culture conditions for 72 hr. The assay was terminated by addition of 25 μL of Cell Titer-Glo reagent (Promega, Madison, Wis.) to each well. Contents were mixed, the plate was incubated for 10 min at room temperature and luminescence was measured. The IC50 value of each test compound was calculated with XLFit curve fitting software. Results are shown in Table 4. ‘+++’ indicates IC50 values≤300 nM, ‘++’ indicates IC50 values between 300 nM-3 μM, and ‘+’ indicates IC50 values≥3 μM.

A word on the IC50: it is the concentration that inhibits the measured activity by half.

Molecules are shown by their SMILES. Read-outs that look alike come from different tables or passages of the source.

Chain of KRAS G12C protein (P01116 1-188 isoform P01116-2 G12C): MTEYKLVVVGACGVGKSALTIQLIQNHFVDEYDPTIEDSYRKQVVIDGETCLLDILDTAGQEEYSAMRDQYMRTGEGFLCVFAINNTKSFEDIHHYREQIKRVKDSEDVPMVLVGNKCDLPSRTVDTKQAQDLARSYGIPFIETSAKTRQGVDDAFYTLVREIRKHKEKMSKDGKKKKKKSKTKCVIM

On to `C=CC(=O)N1CCN(c2nc(OC[C@@H]3CCCN3C)nc3c2COC(c2cccc4cccc(Cl)c24)C3)CC1` (single isomer, unassigned) [40 (Isomer A)], for which the figures for the half-maximal inhibitory concentration (IC50) on KRAS G12C protein and in the assay with NCI-H358 cells were no more than 0.3 µM and 100 to 2000 nM, respectively.
In the same order, the values of `C=CC(=O)N1CCN(c2nc(OC[C@@H]3CCCN3C)nc3c2COC(c2cccc4cccc(Cl)c24)C3)CC1` (single isomer, unassigned) [40 (Isomer B)] are no less than 3 µM and no less than 2000 nM.
As to `C=C(F)C(=O)N1CCN(c2nc(OC[C@@H]3CCCN3C)nc3c2CO[C@H](c2cccc4cccc(Cl)c24)C3)C[C@@H]1CC#N` (single isomer, unassigned) [43 (Isomer A)], the IC50 against KRAS G12C protein is no less than 3 µM; in the assay on NCI-H358 cells (Homo sapiens, NCI-H358, 168 h) it was no less than 2000 nM.
With `C=C(F)C(=O)N1CCN(c2nc(OC[C@@H]3CC(F)(F)CN3C)nc3c2COC(c2cccc4cccc(Cl)c24)C3)C[C@@H]1CC#N` (single isomer, unassigned) [228 (Isomer B)], the IC50 against KRAS G12C protein was no less than 3 µM; in the assay with NCI-H358 cells, no less than 2000 nM.
`CN(C)C/C=C/C(=O)N1CCN(c2nc(OC[C@@H]3CCCN3C)nc3c2COC(c2cccc4cccc(Cl)c24)C3)C[C@@H]1CC#N` (single isomer, unassigned) [242 (Isomer A)] displayed an IC50 at KRAS G12C protein of no less than 3 µM.
Take `CN(C)C/C=C/C(=O)N1CCN(c2nc(OC[C@@H]3CCCN3C)nc3c2COC(c2cccc4cccc(Cl)c24)C3)C[C@@H]1CC#N` (single isomer, unassigned) [242 (Isomer B)]: the IC50 against KRAS G12C protein was no more than 0.3 µM.
`CC#CC(=O)N1CCN(c2nc(OC[C@@H]3CCCN3C)nc3c2COC(c2cccc4cccc(Cl)c24)C3)C[C@@H]1CC#N` (single isomer, unassigned) [243 (Isomer A)] had an IC50 on KRAS G12C protein of no less than 3 µM.
At KRAS G12C protein, `C=C(F)C(=O)N1CCN(c2nc(Oc3cccc4c3CN(C)CC4)nc3c2COC(c2cccc4cccc(Cl)c24)C3)C[C@@H]1CC#N` (single isomer, unassigned) [249 (Isomer A)] displayed an IC50 of 0.3 to 3 µM.
Turning to `C=C(F)C(=O)N1CCN(c2nc(Oc3cccc4c3CN(C)CC4)nc3c2COC(c2cccc4cccc(Cl)c24)C3)C[C@@H]1CC#N` (single isomer, unassigned) [249 (Isomer B)], the IC50 against KRAS G12C protein was no less than 3 µM.
On to `C=C(F)C(=O)N1CCN(c2nc(Oc3cccc4c3CCN(C)C4)nc3c2COC(c2cccc4cccc(Cl)c24)C3)C[C@@H]1CC#N` (single isomer, unassigned) [250 (Isomer A)], for which the IC50 against KRAS G12C protein fell in the range of 0.3 to 3 µM.
With `C=C(F)C(=O)N1CCN(c2nc(Oc3cccc4c3CCN(C)C4)nc3c2COC(c2cccc4cccc(Cl)c24)C3)C[C@@H]1CC#N` (single isomer, unassigned) [250 (Isomer B)], on KRAS G12C protein, the IC50 was 0.3 to 3 µM.
`C=C(F)C(=O)N1CCN(c2nc(OC[C@@H]3CCCN3C)nc3c2COC(c2cccc4cccc(Cl)c24)C3(C)C)C[C@@H]1CC#N` (single isomer, unassigned) [258 (Isomer A)] showed an IC50 against KRAS G12C protein of no less than 3 µM.
Turning to `C=C(F)C(=O)N1CCN(c2nc(OC[C@@H]3CCCN3C)nc3c2COC(c2nc(N)cc4ccccc24)C3)C[C@@H]1CC#N` (single isomer, unassigned) [259 (Isomer A)], the concentration for half-maximal inhibition (IC50) was 0.3 to 3 µM on KRAS G12C protein and no less than 3000 nM with MIA PaCa-2.
As to `C=C(F)C(=O)N1CCN(c2nc(OC[C@@H]3CCCN3C)nc3c2COC(c2nc(N)cc4ccccc24)C3)C[C@@H]1CC#N` (single isomer, unassigned) [259 (Isomer B)], the IC50 on KRAS G12C protein is no more than 0.3 µM; in the assay with MIA PaCa-2, no more than 300 nM.
For the molecule `C=C(F)C(=O)N1CCN(c2nc(OC[C@@H]3CCCN3C)nc3c2COC(c2cccc4sc(N)nc24)C3)C[C@@H]1CC#N` (single isomer, unassigned) [260 (Isomer B)], on KRAS G12C protein, the half-inhibitory concentration (IC50) is no more than 0.3 µM.
In the case of `C=C(F)C(=O)N1CCN(c2nc(OCC34CCCN3CCC4)nc3c2COC(c2cccc4cccc(Cl)c24)C3)C[C@@H]1CC#N` (single isomer, unassigned) [266 (Isomer A)], the IC50 lay in the range of 0.3 to 3 µM on KRAS G12C protein and 300 to 3000 nM with MIA PaCa-2 (Homo sapiens, MIA PaCa-2, 72 h).
For `C=C(F)C(=O)N1CCN(c2nc(OC[C@H]3CCCN3C)nc3c2COC(c2cccc4cccc(Cl)c24)C3)C[C@@H]1CC#N` (single isomer, unassigned) [267 (Isomer A)], the IC50 was 0.3 to 3 µM at KRAS G12C protein and no less than 3000 nM with MIA PaCa-2.
Turning to `C=C(F)C(=O)N1CCN(c2nc(OC[C@H]3CCCN3C)nc3c2COC(c2cccc4cccc(Cl)c24)C3)C[C@@H]1CC#N` (single isomer, unassigned) [267 (Isomer B)], the IC50 on KRAS G12C protein is no more than 0.3 µM; in the assay with MIA PaCa-2, no more than 300 nM.
Turning to `C=C(F)C(=O)N1CCN(c2nc(OC3CN(C)CC3C)nc3c2COC(c2cccc4cccc(Cl)c24)C3)C[C@@H]1CC#N` (single isomer, unassigned) [272 (Isomer A)], the IC50 on KRAS G12C protein was no less than 3 µM.
`C=C(F)C(=O)N1CCN(c2nc(OC3CN(C)CC3C)nc3c2COC(c2cccc4cccc(Cl)c24)C3)C[C@@H]1CC#N` (single isomer, unassigned) [272 (Isomer B)] had a half-maximal inhibitory concentration (IC50) against KRAS G12C protein of no less than 3 µM.
Take `C=C(F)C(=O)N1CCN(c2nc(OC3CN(C)CC3C)nc3c2COC(c2cccc4cccc(Cl)c24)C3)C[C@@H]1CC#N` (single isomer, unassigned) [272 (Isomer C)]: the IC50 against KRAS G12C protein is no more than 0.3 µM.
In turn, `C=C(F)C(=O)N1CCN(c2nc(OC3CN(C)CC3C)nc3c2COC(c2cccc4cccc(Cl)c24)C3)C[C@@H]1CC#N` (single isomer, unassigned) [272 (Isomer D)] showed an IC50 against KRAS G12C protein of 0.3 to 3 µM.
The molecule `C=C(F)C(=O)N1CCN(c2nc(OC[C@@H]3CCCN3C)nc3c2CC=C(c2cccc4cccc(Cl)c24)O3)C[C@H]1C` [Compound 154, 1-((R)-4-(7-(8-chloronaphthalen-1-yl)-2-(((S)-1-methylpyrrolidin-2-yl)methoxy)-5H-pyrano[2,3-d]pyrimidin-4-yl)-2-methylpiperazin-1-yl)-2-fluoroprop-2-en-1-one] had an IC50 against KRAS G12C protein of no less than 3 µM.
In the case of `C=C(F)C(=O)N1CCN(c2nc(OC[C@@H]3CCCN3C)nc3c2CC=C(c2cccc4cccc(Cl)c24)O3)CC1` [Compound 174, (S)-1-(4-(7-(8-chloronaphthalen-1-yl)-2-((1-methylpyrrolidin-2-yl)methoxy)-5H-pyrano[2,3-d]pyrimidin-4-yl)piperazin-1-yl)-2-fluoroprop-2-en-1-one], on KRAS G12C protein, the IC50 was no less than 3 µM.
On to `C=C(F)C(=O)N1CCN(c2nc(OC[C@@H]3CCCN3C)nc3c2CC=C(c2cccc4cccc(Cl)c24)O3)C[C@@H]1CC#N` [Compound 178, 2-((S)-4-(7-(8-chloronaphthalen-1-yl)-2-(((S)-1-methylpyrrolidin-2-yl)methoxy)-5H-pyrano[2,3-d]pyrimidin-4-yl)-1-(2-fluoroacryloyl)piperazin-2-yl)acetonitrile], for which the IC50 was no more than 0.3 µM on KRAS G12C protein and 100 to 2000 nM with NCI-H358 cells (Homo sapiens, NCI-H358, 168 h).
In the same order, the values of `C=CC(=O)N1CCN(c2nc(OC[C@@H]3CCCN3C)nc3c2CC=C(c2cccc4cccc(Cl)c24)O3)C[C@@H]1CC#N` [Compound 181, 2-((S)-1-acryloyl-4-(7-(8-chloronaphthalen-1-yl)-2-(((S)-1-methylpyrrolidin-2-yl)methoxy)-5H-pyrano[2,3-d]pyrimidin-4-yl)piperazin-2-yl)acetonitrile] are no more than 0.3 µM and no more than 100 nM.

These data come from patent publication US20230023009A1, “HETEROCYCLIC COMPOUNDS AND METHODS OF USE THEREOF” (SPARCBIO LLC, priority 2020, published 2023).
